The results in this text go back to ChEMBL document CHEMBL1141982, “A rate determining step change in the pre-steady state of acetylcholinesterase inhibitions by 1,n-alkane-di-N-butylcarbamates” (Bioorg Med Chem Lett, 2005).

The target in series [1] is T1, Acetylcholinesterase (Homo sapiens, UniProt P22303). The series can be described thus: Kinetic constant (k2) for acetylcholinesterase.
Series [2] addresses T1, Acetylcholinesterase. Description: Kinetic constant (k-2) for acetylcholinesterase.
Series [3] addresses T1, Acetylcholinesterase. Description: Ratio of k2/k-2 for acetylcholinesterase.
For series [4], the target named is T1, Acetylcholinesterase. The series can be described thus: Inhibition constant for acetylcholinesterase.
Series [5] in a line: Carbamylation rate constant was determined.
Series [6] has as its target T1, Acetylcholinesterase. The series can be described thus: Dissociation constant for acetylcholinesterase.

pKi: −log10 of the molar value.

T1 sequence (P22303 whole entry): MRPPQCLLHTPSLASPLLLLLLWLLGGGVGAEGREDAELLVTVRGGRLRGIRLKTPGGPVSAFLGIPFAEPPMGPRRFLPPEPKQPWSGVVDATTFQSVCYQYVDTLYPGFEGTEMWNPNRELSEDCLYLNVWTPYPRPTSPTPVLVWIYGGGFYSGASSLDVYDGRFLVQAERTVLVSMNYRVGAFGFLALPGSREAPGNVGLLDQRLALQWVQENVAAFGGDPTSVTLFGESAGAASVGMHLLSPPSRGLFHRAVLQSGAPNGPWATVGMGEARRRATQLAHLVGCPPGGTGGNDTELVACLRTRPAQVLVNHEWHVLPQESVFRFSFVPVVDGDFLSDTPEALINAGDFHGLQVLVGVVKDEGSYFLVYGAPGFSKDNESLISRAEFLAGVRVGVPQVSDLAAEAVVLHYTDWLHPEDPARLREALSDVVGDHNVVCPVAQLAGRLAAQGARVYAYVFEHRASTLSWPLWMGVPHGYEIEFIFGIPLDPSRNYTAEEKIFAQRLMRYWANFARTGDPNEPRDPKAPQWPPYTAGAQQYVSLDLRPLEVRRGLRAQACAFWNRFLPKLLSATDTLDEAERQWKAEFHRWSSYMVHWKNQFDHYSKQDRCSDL

Consider `CCCCNC(=O)OCCCCCO`, for which, at Acetylcholinesterase [1], the k2 is 8.1 10e-3 1/s. The k-2 at Acetylcholinesterase [2] was 5 10e-3 1/s. Moreover, the Ratio on Acetylcholinesterase [3] was 2. The compound also gave a pKi on Acetylcholinesterase [4] of 5.85. Further, the kc in series [5] is reported as 3.5 10e-3 1/s. Moreover, the Ks at Acetylcholinesterase [6] came to 2.2 µM.
Consider `CCCCNC(=O)OCCCCCCCCCCCCOC(=O)NCCCC`, for which the k2 on Acetylcholinesterase [1] is 5 10e-3 1/s. For the same compound, the k-2 on Acetylcholinesterase [2] was 2.2 10e-3 1/s. In addition, the Ratio on Acetylcholinesterase [3] worked out at 2.2. The pKi on Acetylcholinesterase [4] was 6.80. The kc in series [5] was 4.6 10e-3 1/s. The Ks at Acetylcholinesterase [6] worked out at 0.36 µM.
For `CCCCNC(=O)OCCOC(=O)NCCCC`, the k2 on Acetylcholinesterase [1] is 2.8 10e-3 1/s. The k-2 at Acetylcholinesterase [2] was 0.35 10e-3 1/s. Besides, the Ratio at Acetylcholinesterase [3] was 8. For the same compound, the pKi on Acetylcholinesterase [4] is 6.44. Further, in series [5], the kc was 3 10e-3 1/s. This compound showed a Ks on Acetylcholinesterase [6] of 2.9 µM.
As for `CCCCNC(=O)OCCCCCCCCCCCCCCO`, on Acetylcholinesterase [1], the k2 was 5.3 10e-3 1/s. The k-2 on Acetylcholinesterase [2] was 4 10e-3 1/s. For the same compound, at Acetylcholinesterase [3], the Ratio is 1.3. Further, the negative-log Ki (pKi) on Acetylcholinesterase [4] was 6.70. Also, the kc in series [5] is on record as 4.6 10e-3 1/s. Also, the Ks at Acetylcholinesterase [6] was 0.45 µM.
On to `CCCCNC(=O)OCCCCCOC(=O)NCCCC`, for which the k2 on Acetylcholinesterase [1] was 3.4 10e-3 1/s. Moreover, the k-2 at Acetylcholinesterase [2] was 0.62 10e-3 1/s. Also, the Ratio on Acetylcholinesterase [3] was determined as 5.5. Further, the pKi on Acetylcholinesterase [4] is 6.60. Also, the kc in series [5] is reported as 3.3 10e-3 1/s. The compound also showed a Ks on Acetylcholinesterase [6] of 1.4 µM.
For `CCCCNC(=O)OCCCCCCCCCCCCCCCCOC(=O)NCCCC`, the k2 at Acetylcholinesterase [1] was 6.1 10e-3 1/s. Besides, the k-2 on Acetylcholinesterase [2] was 3.1 10e-3 1/s. Besides, the Ratio on Acetylcholinesterase [3] worked out at 2. In addition, the negative-log Ki (pKi) on Acetylcholinesterase [4] was 6.77. For the same compound, in series [5], the kc is listed as 5.3 10e-3 1/s. The Ks on Acetylcholinesterase [6] worked out at 0.34 µM.
In the case of `CCCCNC(=O)OCCCCCCCCCCCCO`, the k2 on Acetylcholinesterase [1] is 8.1 10e-3 1/s. For the same compound, the k-2 on Acetylcholinesterase [2] is 4 10e-3 1/s. On Acetylcholinesterase [3], the Ratio was 2. Also, at Acetylcholinesterase [4], the pKi was 6.52. Also, in series [5], the kc is 4.1 10e-3 1/s. This compound also had a Ks on Acetylcholinesterase [6] of 0.65 µM.
For the compound `CCCCNC(=O)OCCCCCCCCCCCCCCCCO`, the k2 at Acetylcholinesterase [1] was 6.1 10e-3 1/s. At Acetylcholinesterase [2], the k-2 was 3 10e-3 1/s. Moreover, the Ratio at Acetylcholinesterase [3] came out at 2. On Acetylcholinesterase [4], the pKi is 6.89. Moreover, the kc in series [5] was 4.9 10e-3 1/s. Besides, the Ks on Acetylcholinesterase [6] turned out to be 0.37 µM.
Take `CCCCNC(=O)OCCCCCCCCO`: the k2 on Acetylcholinesterase [1] was 7.2 10e-3 1/s. The k-2 at Acetylcholinesterase [2] is 3 10e-3 1/s. On Acetylcholinesterase [3], the Ratio was determined as 2.4. Also, the negative logarithm of the Ki (pKi) at Acetylcholinesterase [4] was 6.44. The kc in series [5] is recorded as 3.6 10e-3 1/s. On Acetylcholinesterase [6], this compound registered a Ks of 0.88 µM.
Turning to `CCCCNC(=O)OCCCCCCCCCCOC(=O)NCCCC`, the k2 on Acetylcholinesterase [1] was 4.6 10e-3 1/s. For the same compound, on Acetylcholinesterase [2], the k-2 was 2 10e-3 1/s. Further, the Ratio on Acetylcholinesterase [3] turned out to be 2.3. The compound further gave a pKi at Acetylcholinesterase [4] of 6.80. Further, the kc in series [5] is reported as 4.1 10e-3 1/s. This compound also had a Ks at Acetylcholinesterase [6] of 0.37 µM.
`CCCCNC(=O)OCCCCCCCCCCO`: on Acetylcholinesterase [1], the k2 is 7.6 10e-3 1/s. Also, at Acetylcholinesterase [2], the k-2 is 3.1 10e-3 1/s. In addition, the Ratio on Acetylcholinesterase [3] is 2.5. Moreover, on Acetylcholinesterase [4], the pKi is 6.70. Also, the kc in series [5] was 3.9 10e-3 1/s. The compound further had a Ks at Acetylcholinesterase [6] of 0.52 µM.
For the compound `CCCCNC(=O)OCCCCCCCCCCCCCCOC(=O)NCCCC`, the k2 on Acetylcholinesterase [1] was 5.4 10e-3 1/s. For the same compound, the k-2 on Acetylcholinesterase [2] was 2.4 10e-3 1/s. Also, at Acetylcholinesterase [3], the Ratio was 2.3. Moreover, the pKi at Acetylcholinesterase [4] was 6.80. Further, the kc in series [5] is 4.9 10e-3 1/s. This compound returned a Ks at Acetylcholinesterase [6] of 0.36 µM.
On to `CCCCNC(=O)OCCO`, for which the k2 on Acetylcholinesterase [1] was 7.5 10e-3 1/s. The k-2 on Acetylcholinesterase [2] was 5 10e-3 1/s. For the same compound, the Ratio on Acetylcholinesterase [3] came to 1.5. The kc in series [5] is listed as 3.1 10e-3 1/s. The Ks at Acetylcholinesterase [6] came to 2.3 µM.
With `CCCCNC(=O)OCCCCCCCCOC(=O)NCCCC`, the k2 at Acetylcholinesterase [1] was 4.2 10e-3 1/s. On Acetylcholinesterase [2], the k-2 is 1.6 10e-3 1/s. Also, the Ratio on Acetylcholinesterase [3] was determined as 2.6. On Acetylcholinesterase [4], this compound gave a pKi of 6.82. Also, in series [5], the kc is recorded as 4 10e-3 1/s. At Acetylcholinesterase [6], the Ks came out at 0.39 µM.
